Results as given in patent US5247119A, “Phenylacetonitrilehydroxyalkylaminoalkyl-ortho-substituted aryl compounds as immunosuppressives” (G. D. Searle & Co., priority 1992, dated 1993).

Experiments:
Format in all cases: cell-based, female Balb/c mice
[1] = tested on: spleen cell leukocytes (cell viability); test: in vitro; settings: 48 h
Experimental: (§1) Measurement of drug-induced cellular cytotoxicity was determined after 48 hours of cell culture with and without conA and with and without test compound or vehicle control. All cell preparations and assay conditions were identical to those described in Assay A. A fluorescence based assay was used to measure cell viability using the carboxyfluorescein derivative 2'-7'-biscarboxyethyl-5 (6)-carboxyfluorecein (BCECF) as a vital dye [Leeder, J. S., Dosch, H. M., Harper, P. A., Lam, P. and S. P. Spielberg, 1989. Anal. Biochem. 177, 364-372]. The membrane permeant, nonfluorescent ester derivitive, BCECF-AM (100 μl of a 2 ug/ml solution in phosphate buffered saline, pH 7.0, Molecular Probes, Eugene, OR) was added to each cell culture and incubated at 37° C. for 30 min. […] The cells were washed and concentrated on the well membrane under low vacuum, and cell associated fluorescence was measured by front surface fluorometry (485/535 nM) in the Screen Machine (Baxter) using an automated protocol. Probit analysis was used to determine viability as a percentage of relative fluorescence units (RFU) compared to control (cells and medium). The dose of test compound that induced at least 50% cellular toxicity, i.e., a 50% reduction in RFU compared to unstimulated control cells, was recorded.

[2] = tested on: conA-stimulated T cell proliferation (spleen cells); test: Assay A: Suppression of Murine Mitogen-Stimulated Proliferation; settings: conA 1 ug/ml, 3 days culture, MTT readout, n = 2
Text: Assay A: Suppression of Murine Mitogen-Stimulated Proliferation
It is known that lymphocyte activation can be polyclonally stimulated by plant lectins and other mitogenic substances that induce blast transformation and mitosis. The plant lectin concanavalin A (conA) preferentially induces activation and proliferation of T lymphocytes. Exposure of T cells to conA results in polyclonal T cell activation, and this response can be used to determine the in vitro index of immunomodulatory effects of test compounds on pan-T cell activation. Spleen cells were harvested aseptically from female Balb/c mice, and cells were extruded by compression in phosphate buffered saline (pH 7.0). […] The remaining cells were pelleted, resuspended in medium, filtered through a cotton plug to remove debris, and the leukocytes were then counted. […] Inhibition of conA-stimulated T cell proliferation was measured using a colorimetric indicator of cell growth and proliferation, MTT [3-(4,5-dimethylthiazol-2-yl)-2 diphenyltetrazolium bromide; 100 μl of a 1 mg/ml solution per well, SIGMA] […] Light absorbance was measured at a test wavelength of 570 nm and a reference wavelength of 650 nm using a spectrophotometer. […]

in vitro = settings: spleen cell leukocytes
Experimental: as §1

Structure (SMILES) | CC50 [1] [µM] | EC50 [2] [µM] | CC50 at 48 h (in vitro) [µM] | EC50 ([2]; Mus musculus, T-cell, 72 h) [µM]
COc1ccc(CCN(C)CC(O)CC(C#N)(c2ccc(OC)c(OC)c2)C(C)C)cc1OC (racemic) [Example 1-B, α-[3-[[2-(3,4-dimethoxyphenyl)ethyl]methylamino]-2-hydroxypropyl]-3,4-dimethoxy-α-(1-methylethyl)benzeneacetonitrile] | 60 | 17.9 ± 8.16 |  | 
COc1ccc(CCN(C)CC(O)CC(C#N)(c2ccc(OC)c(OC)c2)C(C)C)cc1OC (racemic) [Example 1-A, α-[3-[[2-(3,4-dimethoxyphenyl)ethyl]methylamino]-2-hydroxypropyl]-3,4-dimethoxy-α-(1-methylethyl)benzeneacetonitrile] |  |  | 60 | 12.9 ± 5.75
